Earlier results, collected in patent US20230330068A1, “GEL COMPOSITION OF LULICONAZOLE FOR TREATMENT OF VAGINAL FUNGAL INFECTIONS AND ITS MANUFACTURING PROCESS” (priority 2023, published 2023).

System: Candida
Conditions: anticandidal activity; recent findings from the literature

N#C/C(=C1/SC[C@@H](c2ccc(Cl)cc2Cl)S1)n1ccnc1 [Luliconazole]
minimum inhibitory concentration (MIC) range: 31 to 130 µg/mL
